Test results from patent US11186583B2, “5-alkylthio-7-[(4-arylbenzyl)amino]-1(2)H-pyrazolo[4,3-d]pyrimidines for treatment of lymphoma” (UNIVERZITA PALACKEHO V OLOMOUCI, priority 2018, dated 2021).
Like-named read-outs stand apart in the source and are kept apart here.

Tests used:
CDK2/Cyclin E = target: T1, CDK2/Cyclin E (Homo sapiens, UniProt P24941); assay: CDK2/Cyclin E kinase inhibition, [γ-33P]ATP, histone H1; assay type: biochemical
T1 construct: made in house; host or cells: Sf9 insect cells (baculovirus)
Protocol: CDK2/Cyclin E and CDK1/Cyclin B kinases were produced in Sf9 insect cells via baculoviral infection and purified on a Ni-NTA column (Qiagen). CDK4/Cyclin D1, CDK5/p35NCK, CDK7/Cyclin H/MAT1 and CDK9/Cyclin T1 were purchased from ProQinase GmbH. […] The reactions were stopped by adding 5 mL of 3% aq. H3PO4. Aliquots were spotted onto P-81 phosphocellulose (Whatman), washed 3 times with 0.5% aq. H3PO4 and finally air-dried. Kinase inhibition was quantified using a FLA-7000 digital image analyzer (Fujifilm). The concentration of the test compounds required to decrease the CDK activity by 50% was determined from dose response curves and designated as IC50.

[1] = system: HT (diffuse large B-cell lymphoma, subtype—germinal center B-cell); assay: MTT cytotoxicity assay, HT lymphoma cell line; assay type: cell-based; conditions: Homo sapiens, 72 h, HT cells, three days, read-out: Lymphoma cell lines GI50, HT
Source text: (§1) Cytotoxicity of the compounds is the major property determining their anti-lymphoma efficacy in vitro. One of the parameters used, as the basis for cytotoxicity assays, is the metabolic activity of viable cells. For example 2, a microtiter assay, which uses (3-(4,5-dimethylthiazol-2-yl)-2,5-diphenyltetrazolium bromide (MTT), is widely used to quantitate cell proliferation and cytotoxicity. This assay is widely used in drug screening programs and in chemosensitivity testing. Because only metabolically active living cells reduce MTT to correspond purple formazan dye, these assays detect viable cells exclusively. The quantity of reduced MTT corresponds to the number of vital cells in the culture.
(§2) The compounds were assayed using the following lymphoma cell lines: HT (diffuse large B-cell lymphoma, subtype—germinal center B-cell), OCI-LY2 (diffuse large B-cell lymphoma, subtype—germinal center B-cell), MINO (mantle cell lymphoma). All cell lines were grown in RPMI medium supplemented with fetal bovine serum and glutamine and maintained at 37° C. in a humidified atmosphere with 5% CO2. For cytotoxicity assays, 5000-10000 cells were seeded into each well of 96 well plate, allowed to stabilize for at least 8 h and then tested compounds were added at various concentrations ranging from 100 to 0.01 μM in triplicates. After three days, MTT solution (5 mg/ml; Sigma, St. Louis, USA) was added to cells and medium was replaced with DMSO after five hours. The absorbance was measured at 620 nm by employing a microplate reader. MTT assays were repeated 3 times for each drug application and untreated cells were used as reference. The GI50 values, drug concentrations lethal to 50% of the cells, were calculated from the obtained dose response curves.

[2] = system: MINO (mantle cell lymphoma); assay: MTT cytotoxicity assay, MINO lymphoma cell line; assay type: cell-based; conditions: Homo sapiens, 72 h, MINO cells, three days, read-out: Lymphoma cell lines GI50, MINO
Source text: as §1, §2

[3] = system: OCI-LY2 (diffuse large B-cell lymphoma, subtype—germinal center B-cell); assay: MTT cytotoxicity assay, OCI-LY2 lymphoma cell line; assay type: cell-based; conditions: 72 h, OCI-LY2 cells, three days, read-out: Lymphoma cell lines GI50, OCI-LY2
Source text: as §1, §2

CDK9/Cyclin T1 = target: T2, CDK9/Cyclin T1 (Homo sapiens, UniProt P50750); assay: CDK9/Cyclin T1 kinase inhibition, [γ-33P]ATP, (YSPTSPS)2 KK peptide; assay type: biochemical; conditions: CDK panel, tested at least in duplicates
T2 construct: purchased ProQinase GmbH
T2 sequence (P50750 whole entry): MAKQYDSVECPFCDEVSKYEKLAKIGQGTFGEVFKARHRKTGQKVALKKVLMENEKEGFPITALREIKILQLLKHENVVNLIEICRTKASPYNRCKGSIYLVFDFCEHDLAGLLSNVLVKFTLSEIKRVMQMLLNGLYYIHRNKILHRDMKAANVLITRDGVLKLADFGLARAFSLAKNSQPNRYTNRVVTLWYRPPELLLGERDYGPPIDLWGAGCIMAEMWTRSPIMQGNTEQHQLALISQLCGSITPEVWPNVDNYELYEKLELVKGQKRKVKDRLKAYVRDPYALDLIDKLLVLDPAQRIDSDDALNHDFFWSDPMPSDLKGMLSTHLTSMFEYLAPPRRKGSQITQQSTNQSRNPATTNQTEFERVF
T2 sequence (O60563 whole entry partner): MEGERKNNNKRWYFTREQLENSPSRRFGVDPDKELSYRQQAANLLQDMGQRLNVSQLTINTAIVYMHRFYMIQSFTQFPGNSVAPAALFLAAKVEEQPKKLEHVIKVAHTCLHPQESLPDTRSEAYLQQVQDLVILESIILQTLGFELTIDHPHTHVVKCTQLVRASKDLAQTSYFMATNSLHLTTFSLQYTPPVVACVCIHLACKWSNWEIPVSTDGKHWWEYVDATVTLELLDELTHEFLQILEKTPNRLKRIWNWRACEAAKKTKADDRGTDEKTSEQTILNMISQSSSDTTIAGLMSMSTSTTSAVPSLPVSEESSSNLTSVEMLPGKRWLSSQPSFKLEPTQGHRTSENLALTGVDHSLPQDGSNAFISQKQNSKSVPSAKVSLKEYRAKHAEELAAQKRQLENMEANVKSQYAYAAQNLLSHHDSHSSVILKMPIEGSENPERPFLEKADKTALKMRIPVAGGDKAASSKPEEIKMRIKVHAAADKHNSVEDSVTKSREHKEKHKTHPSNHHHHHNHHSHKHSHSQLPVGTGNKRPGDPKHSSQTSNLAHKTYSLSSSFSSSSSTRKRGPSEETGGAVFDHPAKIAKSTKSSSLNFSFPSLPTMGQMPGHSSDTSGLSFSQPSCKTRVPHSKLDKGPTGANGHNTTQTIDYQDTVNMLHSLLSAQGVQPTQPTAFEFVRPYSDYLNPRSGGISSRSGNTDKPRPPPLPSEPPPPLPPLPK
Protocol: (§3) CDK2/Cyclin E and CDK1/Cyclin B kinases were produced in Sf9 insect cells via baculoviral infection and purified on a Ni-NTA column (Qiagen). CDK4/Cyclin D1, CDK5/p35NCK, CDK7/Cyclin H/MAT1 and CDK9/Cyclin T1 were purchased from ProQinase GmbH. The kinases were assayed with 1 mg/mL histone H1 (for CDK1/2/5) or (YSPTSPS)2 KK peptide (for CDK7/CDK9) or […] peptide (for CDK4) in the presence of […] (for CDK1/2/4/5/7/9), 0.05 mCi [γ-33P]ATP and of the test compound in a final volume of […], all in a reaction buffer (60 mM HEPES, NaOH, pH 7.5, 3 mM MgCl2, 3 mM MnCl2, 3 mM Na-orthovanadate, 1.2 mM DTT, 2.5 mg/50 ml PEG20.000). The reactions were stopped by adding […] of 3% aq. H3PO4. Aliquots were spotted onto P-81 phosphocellulose (Whatman), washed 3 times with 0.5% aq. H3PO4 and finally air-dried. Kinase inhibition was quantified using a FLA-7000 digital image analyzer (Fujifilm). The concentration of the test compounds required to decrease the CDK activity by 50% was determined from dose response curves and designated as IC50.

CDK4/Cyclin D1 = target: T3, CDK4/Cyclin D1 (Homo sapiens, UniProt P11802); assay: CDK4/Cyclin D1 kinase inhibition, [γ-33P]ATP, […] peptide; assay type: biochemical; conditions: CDK panel, tested at least in duplicates
T3 construct: purchased ProQinase GmbH
T3 sequence (P11802 whole entry): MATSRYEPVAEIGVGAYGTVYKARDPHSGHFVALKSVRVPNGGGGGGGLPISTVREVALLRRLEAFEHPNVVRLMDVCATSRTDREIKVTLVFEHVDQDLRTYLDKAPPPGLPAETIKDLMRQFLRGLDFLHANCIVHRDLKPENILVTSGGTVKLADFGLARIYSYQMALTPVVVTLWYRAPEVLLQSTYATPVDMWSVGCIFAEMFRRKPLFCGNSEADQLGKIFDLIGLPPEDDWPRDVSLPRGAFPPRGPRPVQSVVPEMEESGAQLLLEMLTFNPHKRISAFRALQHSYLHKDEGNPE
T3 sequence (P24385 whole entry partner): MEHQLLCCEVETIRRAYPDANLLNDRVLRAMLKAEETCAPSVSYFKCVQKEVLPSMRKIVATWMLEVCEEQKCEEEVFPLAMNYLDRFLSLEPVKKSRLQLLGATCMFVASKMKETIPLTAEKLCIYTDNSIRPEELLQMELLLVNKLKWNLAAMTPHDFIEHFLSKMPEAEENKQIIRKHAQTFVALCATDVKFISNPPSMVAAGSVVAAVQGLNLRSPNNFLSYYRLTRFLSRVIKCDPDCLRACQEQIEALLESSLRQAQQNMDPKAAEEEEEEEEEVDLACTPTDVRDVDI
Protocol: as §3

[4] = Table 4, read-out: CDK2/E inhibition IC50
[5] = Table 3, read-out: Enzyme inhibition IC50 CDK2/E

Structure (SMILES) | IC50 (CDK2/Cyclin E; [4]) | GI50 [1] | GI50 [2] | GI50 [3] | further results
CC(C)c1[nH]nc2c(NCc3ccc(-n4cccn4)cc3)nc(SCC(O)CO)nc12 (stereo not drawn) [Compound 4.94, 5-(2,3-Dihydroxy-1-propyl)thio-3-isopropyl-7-[4-(pyrazol-1-yl)benzyl]amino-1(2)H-pyrazolo[4,3-d]pyrimidin] | 6 nM | – | – | – | –
CC(C)c1[nH]nc2c(NCc3ccc(-n4cccn4)cc3)nc(SCC(C)(C)O)nc12 [Compound 4.93, 5-(2-Hydroxy-2-methyl-1-propyl)thio-3-isopropyl-7-[4-(pyrazol-1-yl)benzyl]amino-1(2)H-pyrazolo[4,3-d]pyrimidin] | 8 nM | – | – | – | –
CC(C)c1[nH]nc2c(NCc3ccc(-n4cccn4)cc3)nc(SCCN(C)C)nc12 [Compound 4.95] | 43 nM | – | – | – | –
CC(C)c1n[nH]c2c(NCc3ccc(-c4ccccn4)cc3)nc(SCCS)nc12 [Compound 4.35, 5-(2-sulfanylethyl)thio-3-isopropyl-7-[4-(2-pyridyl)benzyl]amino-1(2)H-pyrazolo[4,3-d]pyrimidine] | – | – | – | – | IC50 (CDK2/Cyclin E; [5]): 320 nM
CC(C)c1n[nH]c2c(NCc3ccc(-c4ccccn4)cc3)nc(SC3OC(CO)C(O)C(O)C3O)nc12 [Compound 4.22, 5-β-D-Thioglucosid-3-isopropyl-7-[4-(2-pyridyl)benzyl]amino-1(2)H-pyrazolo[4,3-d]pyrimidine] | – | 8070 nM | 21600 nM | 25200 nM | IC50 (CDK2/Cyclin E; [5]): 363 nM
CC(O)CSc1nc(NCc2ccc(-n3cccn3)cc2)c2n[nH]c(C(C)C)c2n1 (stereo not drawn) [Compound 4.81, 5-(2-Hydroxy-1-propyl)thio-3-isopropyl-7-[4-(pyrazol-1-yl)benzyl]amino-1(2)H-pyrazolo[4,3-d]pyrimidin] | 37 nM | – | – | – | –
CC(C)c1n[nH]c2c(NCc3ccc(-c4ccccn4)cc3)nc(SCCN)nc12 [Compound 4.9, 5-(2-Amino-1-ethyl)thio-3-isopropyl-7-[4-(2-pyridyl)benzyl]amino-1(2)H-pyrazolo[4,3-d]pyrimidine] | – | 40 nM | 29 nM | 46 nM | IC50 (CDK2/Cyclin E; CDK panel, tested at least in duplicates, read-out: IC50 CDK2): 5 ± 1 nM; IC50 (CDK2/Cyclin E; [5]): 4 nM
CC[C@@H](CO)Nc1nc(NCc2ccc(-c3ccccn3)cc2)c2ncn(C(C)C)c2n1 [CR8, (2S)-2-[[9-propan-2-yl-6-[(4-pyridine-2-ylphenyl)methylamino]purin-2-yl]amino]butan-1-ol] | – | – | – | – | IC50 (CDK9/Cyclin T1): 272 ± 38 nM; IC50 (CDK4/Cyclin D1): 26100 nM
CC(C)c1n[nH]c2c(NCc3ccc(-c4cnccn4)cc3)nc(SCCO)nc12 [Compound 4.133, 5-(2-Hydroxy-1-ethyl)thio-3-isopropyl-7-[4-(pyrazin-2-yl)benzyl]amino-1(2)H-pyrazolo[4,3-d]pyrimidin] | 6 nM | – | – | – | –
CC(C)c1n[nH]c2c(NCc3ccc(-c4ccccn4)cc3)nc(SC3CCCCC3O)nc12 (stereo not drawn) [Compound 4.14, 5-(2-Hydroxycyclohexyl1-yl)thio-3-isopropyl-7-[4-(2-pyridyl)benzyl]amino-1(2)H-pyrazolo[4,3-d]pyrimidine] | – | 636 nM | 530 nM | 680 nM | –
CC(C)c1n[nH]c2c(NCc3ccc(-c4ccccn4)cc3)nc(SCCn3ccnc3)nc12 [Compound 4.26, 5-[2-(1-Imidazolyl)-1-ethyl]thio-3-isopropyl-7-[4-(2-pyridyl)benzyl]amino-1(2)H-pyrazolo[4,3-d]pyrimidine] | – | 155 nM | 135 nM | 145 nM | –
CC(C)c1n[nH]c2c(NCc3ccc(-c4ccccn4)cc3)nc(SCC(C)(C)O)nc12 [Compound 4.17, 5-(2-Hydroxy-2-methyl-1-propyl)thio-3-isopropyl-7-[4-(2-pyridyl)benzyl]amino-1(2)H-pyrazolo[4,3-d]pyrimidine] | – | 507 nM | 477 nM | 610 nM | –
CC(C)c1n[nH]c2c(NCc3ccc(-c4ccccn4)cc3)nc(SCCO)nc12 [Compound 4.1, 5-(2-Hydroxy-1-ethyl)thio-3-isopropyl-7-[4-(2-pyridyl)benzyl]amino-1(2)H-pyrazolo[4,3-d]pyrimidine] | – | 48 nM | 40 nM | 50 nM | –
CC(C)c1n[nH]c2c(NCc3ccc(-n4ccnc4)cc3)nc(SCCO)nc12 [Compound 4.50, 5-(2-Hydroxy-1-ethyl)thio-3-isopropyl-7-[4-(imidazol-1-yl)benzyl]amino-1(2)H-pyrazolo[4,3-d]pyrimidine] | 10 nM | – | – | – | –
CC(C)c1n[nH]c2c(NCc3ccc(-n4ccnc4)cc3)nc(SCCN)nc12 [Compound 4.57, 5-(2-Amino-1-ethyl)thio-3-isopropyl-7-[4-(imidazol-1-yl)benzyl]amino-1(2)H-pyrazolo[4,3-d]pyrimidin] | 5 nM | – | – | – | –

Second part, led by results:

IC50 (CDK2/Cyclin E; [4]) | Structure (SMILES) | GI50 [1] | GI50 [2] | GI50 [3] | further results
60 nM | CC(C)c1[nH]nc2c(NCc3ccc(-n4cccn4)cc3)nc(SCCCN(C)C)nc12 [Compound 4.96] | – | – | – | –
3 nM | CC(C)c1[nH]nc2c(NCc3ccc(-n4cccn4)cc3)nc(SCCO)nc12 [Compound 4.80, 5-(2-Hydroxy-1-ethyl)thio-3-isopropyl-7-[4-(pyrazol-1-yl)benzyl]amino-1(2)H-pyrazolo[4,3-d]pyrimidin] | – | – | – | –
4 nM | CC(C)c1n[nH]c2c(NCc3ccc(-c4cnccn4)cc3)nc(SCCN)nc12 [Compound 4.139, 5-(2-Amino-1-ethyl)thio-3-isopropyl-7-[4-(pyrazin-2-yl)benzyl]amino-1(2)H-pyrazolo[4,3-d]pyrimidin] | – | – | – | –
5 nM | CC(C)c1n[nH]c2c(NCc3ccc(-c4c[nH]cn4)cc3)nc(SCCO)nc12 [Compound 4.109, 5-(2-Hydroxy-1-ethyl)thio-3-isopropyl-7-[4-(imidazol-4-yl)benzyl]amino-1(2)H-pyrazolo[4,3-d]pyrimidin] | – | – | – | –
11 nM | CC(C)c1[nH]nc2c(NCc3ccc(-n4cccn4)cc3)nc(SCC(C)(C)N)nc12 [Compound 4.90, 5-(2-Amino-2-methyl-1-propyl)thio-3-isopropyl-7-[4-(pyrazol-1-yl)benzyl]amino-1(2)H-pyrazolo[4,3-d]pyrimidin] | – | – | – | –
